# Results as given in patent US20240350589A1, “IL-2/IL-15RBETAGAMMA AGONIST COMBINATION WITH ANTIBODY-DRUG CONJUGATES FOR TREATING CANCER” (Cytune Pharma, priority 2021, published 2024).
# Entries after “also recorded” stand apart in the source; their conditions may differ.
# Columns and labels:
# AGS tumor cell line [1] = assay: Cell surface exposure of ICD markers CRT, HSP70, HSP90 on early apoptotic AGS cells (flow cytometry); format: cell-based, human; settings: doxorubicin 1.2 μM, cisplatin 100 μM 48 h vs Kadcyla 7 μg/ml 72 h
# Protocol: The cells are collected and washed twice with PBS. The cells are then incubated for 30 min with primary antibody diluted in cold blocking buffer (2% fetal bovine serum in PBS), followed by washing and incubation with an […] monoclonal secondary antibody in blocking solution. Each sample was then analyzed using a FACScan Aria (BD Bioscience). Cell surface expression of HSP70, HSP90 and CRT is analyzed on non-permeabilized annexin V-positive/DAPI-negative cells.
# The expression of ICD markers Hsp70, Hsp90 and CRT as well as NK cells ligands was measured by flow cytometry on these early apoptotic (AnnexinV^+/DAPI^−) cell populations using anti-calreticulin antibody (Abcam, USA), anti-HSP70 (R&D Systems, USA), anti-HSP90 (Enzo Life Sciences, USA). APC AffiniPure F(ab′)2 Fragment Goat Anti-Mouse (Jackson ImmunoResearch) was used as a secondary antibody.
# AGS tumor cell line [2] = assay: In vitro killing of AGS tumor cells, AnnexinV/DAPI flow cytometry; format: cell-based, human; settings: doxorubicin 1.2 μM or cisplatin 100 μM 48 h; Kadcyla 7 μg/ml 72 h
# huHER2/EMT-6 tumors = assay: Orthotopic huHER2/EMT-6 breast cancer model in vivo; set-up: species or system Balb/c AnN mice; settings: RLI-15 1 mg/kg s.c. days 15-18, Kadcyla 15 mg/kg i.v. days 0 and 7
# Protocol: The study was initiated when the initial mean tumor volume among individual groups reached 140 mm^3. […] RLI-15 was administered in 4 sequential doses on study days 15-18 to amplify the numbers and activate immune cells. The antitumor efficacy was evaluated on the level of absolute tumor volume change. Safety has been monitored by body weight loss in individual animals. HER2 expression in individual tumors was analyzed using HercepTest™ (Dako) at the endpoint to map for potential heterogeneity of the model (staining was performed according to the instructions given by the manufacturer).
# [3] = tested on: CD3-CD56+ cells (NK cells) of human PBMCs; assay: In vitro activation of NK cells: RLI-15 treated PBMCs co-incubated with treated AGS tumor cells; format: cell-based
# Protocol: As controls non-treated tumor cells were incubated with non-treated PBMC (KadNT in the ADC group) and non-treated tumor cells were incubated with RLI-15 treated PBMC (KadNT in the RLI+ADC group).
# [4] = in vivo; cited from earlier work
molecule,measurement,setting,value
N.N.[Cl][Pt][Cl] [cisplatin],mean fluorescent intensity (MFI) of ICD markers compared with Kadcyla,AGS tumor cell line [1],stronger induction
same,induction of early apoptosis compared with Kadcyla,AGS tumor cell line [2],equally
COc1cccc2c1C(=O)c1c(O)c3c(c(O)c1C2=O)C[C@@](O)(C(=O)CO)C[C@@H]3O[C@H]1C[C@H](N)[C@H](O)[C@H](C)O1 [doxorubicin],mean fluorescent intensity (MFI) of ICD markers compared with Kadcyla,AGS tumor cell line [1],about equal
same,induction of early apoptosis compared with Kadcyla,AGS tumor cell line [2],even better suitable to induce early apoptosis
RLI-15: receptor-linker-interleukin fusion protein of the human IL-15Rα sushi+ fragment with the human IL-15 (SEQ ID NO: 9),tumor volume at the end of the study,huHER2/EMT-6 tumors,intermediate tumor volume increase
same,complete tumor eradication / complete and durable responses,huHER2/EMT-6 tumors; groups of 8 mice,2 out of 8
same,proliferation of CD3-CD56+ NK cells,"[3]; PBMCs +/- 2.5 ng/ml RLI-15 72 h, AGS cells +/- Kadcyla 72 h, 10:1, 4 h",increase of total number of CD3−CD56^+ cells; also recorded: strong proliferation; also recorded: increase of total number of CD3^−CD56^+ cells
same,% of IFNγ+ NK cells,"[3]; PBMCs +/- 2.5 ng/ml RLI-15 72 h, AGS cells treated with Kadcyla 5-10 μg/ml 72 h, 10:1, 4 h",only moderate
same,"% of CD107a+ cells, KadNT group",[3]; RLI-15 treated PBMC with non-treated tumor cells,< 40%
Todelvy,half-life,[4],16 h
